Values quoted from earlier work, collected in PMC5852599, “Microfluidic Devices for Drug Delivery Systems and Drug Screening” (Genes, 2018).

System: breast cancer cells (Her-2)
Set-up: method as in PMID 20237849
Settings: 3D tumor spheroid in alginate hydrogel, compared to 2D cell culture

For `COc1cccc2c1C(=O)c1c(O)c3c(c(O)c1C2=O)C[C@@](O)(C(=O)CO)C[C@@H]3O[C@H]1C[C@H](N)[C@H](O)[C@H](C)O1` [doxorubicin], the “effectiveness on cell viability and proliferation” value is listed as “lower effectiveness”.
